Data reported in patent US20240415918A1, “Polypeptide and its use as a CCK receptor agonist/antagonist” (Centre for Regenerative Medicine & Health, Hong Kong …, priority 2021, published 2024).
Like-named read-outs stand apart in the source and are kept apart here. Where a SMILES comes first, the peptide text is derived from it. [ ]: non-standard residue; d: D form. Phe(3-Br) = N[C@@H](Cc1cccc(Br)c1)C(=O)O; Nle = CCCC[C@H](N)C(=O)O

Columns and labels:
senile wild-type mice = assay: Morris water maze, senile wild-type mice; type: in vivo, mice (C57BL/6); conditions: intraperitoneal injection
[1] = tested on: tri-transgenic Alzheimer's mice (3×Tg-AD); assay: Morris water maze, Alzheimer's mice; type: in vivo; conditions: intraperitoneal injection
Excerpt: Adult male tri-transgenic Alzheimer's mice (3×Tg-AD) were housed under standard conditions with free access to food and water. Our Morris water maze experiment for testing Alzheimer's mice mainly included two parts: positioning navigation experiment and space exploration experiment. The positioning navigation experiment lasted for 8-10 days, and the mice were put into the water four times a day from four entry points facing the pool wall, and the time they spent in finding the hidden platform under the water surface (evasion latency) was recorded. The space exploration experiment was to remove the platform after the positioning navigation experiment, and then put the mice into the pool, record their swimming tracks within one minute, investigate the memory of the mice on the original platform, and calculate the proportion of exploration duration of the mice in the quadrant where the original platform was located (target quadrant). Alzheimer's mice were confirmed to have memory deficiency in the Morris water maze experiment, showing not only a longer evasion latency for positioning the hidden platform in the positioning navigation experiment, but also a worse memory backtracking ability in the space exploration experiment. We randomized Alzheimer's mice into four groups, with the first group given intraperitoneal injection of the CCK4 solution, the second group given intraperitoneal injection of the solvent of CCK4 solution as a control, the third group given intraperitoneal injection of the compound HT-267 solution, and the fourth group given intraperitoneal injection of the solvent of HT-267 solution as a control.

memory-deficient mice [2] = assay: Morris water maze, memory-deficient mice; type: in vivo; conditions: intraperitoneal injection, CCK4 four times a day 10 days, HT compounds once a day 8 days
Excerpt: Adult memory-deficient mice were housed under standard conditions with free access to food and water. Our Morris water maze experiment for testing memory-deficient mice mainly included two parts: positioning navigation experiment and space exploration experiment. The experimental methods were the same as Example 5. We randomized memory-deficient mice into six groups, with the first group given intraperitoneal injection of the CCK4 solution, the second group given intraperitoneal injection of the solvent of CCK4 solution as a control, the third group given intraperitoneal injection of the compound HT-267 solution, the fourth group given intraperitoneal injection of the compound HT-177 solution, the fifth group given intraperitoneal injection of the compound HT-178 solution, and the sixth group given intraperitoneal injection of the solvent of compound solution as a control. In the positioning navigation experiment, the treatment and training methods of the first and the second groups were the same as those of the first and second groups in Example 5, that is, four times of treatment a day, four times of training a day, for a total of 10 days of training. The treatment and training methods of the third to sixth groups were the same as the third and fourth groups in Example 5, that is, one treatment a day, four times of training a day, for a total of 8 days of training. In the space exploration experiment, the spatial memory ability of mice was tested in the same way for each group.

[3] = male, KM, mouse, in vivo, iv, 1 mg/kg
[4] = mouse, in vivo; cited from earlier work
[5] = target: T1, CCK-B receptors (CHO-CCK) (Homo sapiens, UniProt P32239); assay: Calcium flux (Fluo-8) agonist test on CHO-CCK model cells; type: cell-based; conditions: CHO-CCK cells; for EC50: compound alone, 100% = 20 nM CCK8
T1 construct: expressed in transfected cells; host or cells: CHO (CHO-CCK model cells)
T1 sequence (P32239 1-447): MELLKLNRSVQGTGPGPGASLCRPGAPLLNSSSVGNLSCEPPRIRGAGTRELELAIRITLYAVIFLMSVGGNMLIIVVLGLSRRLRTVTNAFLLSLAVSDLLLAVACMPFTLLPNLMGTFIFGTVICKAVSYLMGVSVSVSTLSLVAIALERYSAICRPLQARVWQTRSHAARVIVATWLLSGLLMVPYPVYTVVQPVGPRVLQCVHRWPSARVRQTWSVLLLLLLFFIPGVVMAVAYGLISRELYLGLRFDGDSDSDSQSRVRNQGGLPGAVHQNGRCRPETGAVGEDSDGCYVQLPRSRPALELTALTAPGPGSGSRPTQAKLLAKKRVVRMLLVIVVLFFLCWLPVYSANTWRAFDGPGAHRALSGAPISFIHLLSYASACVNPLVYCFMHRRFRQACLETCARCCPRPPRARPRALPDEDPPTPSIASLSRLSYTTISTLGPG
In short: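 Agonist-mode Fluo-8 calcium flux read on CHO-CCK cells after dye loading 30 min at 37 °C plus 30 min at room temperature.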

[6] = target: T1, CCK-B receptors (CHO-CCK); assay: Calcium flux (Fluo-8) antagonist test on CHO-CCK model cells in presence of CCK8; type: cell-based; conditions: compound together with 10 nM CCK8
memory-deficient mice [7] = assay: New object recognition experiment, memory-deficient mice; type: in vivo; conditions: intraperitoneal injection
Excerpt: The new object recognition experiment is a highly validated method of cognitive memory, designed by Ennaceur & Delacour (1988) based on the exploration characteristics of rodents to new environments, and this model evaluates the memory function of the tested animal based on the length of time that the animal spends in exploring familiar objects it has seen in the environment and new objects it has not seen. […] The experiment is usually divided into three stages: 1. Adaptation period: let the animal be familiar with the experimental environment, and no objects are placed in the experimental box; 2. Familiarization period: place two identical objects in the experimental box and let the mice explore freely for 10 minutes; 3. Test period: put a new object in the experimental box to replace one of the old objects, and the positions of the objects remain unchanged. The exploration of mice was recorded with video, and the time spent in exploring the old and new objects by mice was analyzed, and the proportion of time spent in exploring the new object by mice in the test period accounting for the total time for exploring the objects was calculated, that is, the recognition index of new objects.
Adult memory-deficient mice were housed under standard conditions with free access to food and water. Our new object recognition experiment for testing memory-deficient mice mainly included the adaptation period, the familiarization period, and the test period. The experimental method was the same as Example 12.
We randomized memory-deficient mice into four groups, with one group given intraperitoneal injection of the solvent of drug as the control group, administration group 1 given intraperitoneal injection of the compound HT-267 solution, administration group 2 given intraperitoneal injection of the compound HT-177 solution, and administration group 3 given intraperitoneal injection of the compound HT-178 solution. After the adaptation and familiarization period training, we tested the recognition memory of several groups of mice in the test period experiment.

[8] = tested on: neocortex of memory-deficient mice; assay: Long-term potentiation, in vitro field potential recording of brain slices (MED64), memory-deficient mice; type: cell-based; conditions: compound injected for five minutes
Excerpt: An in vitro electrophysiological electrical signal recording method was used to investigate whether compound HT-267, compound HT-177, and compound HT-178 can induce long-term potentiation in the neocortex of memory-deficient mice. The MED64 low-noise multi-electrode recording system was used to record the electrical signals of brain slices cultured in vitro.

[9] = tested on: CCK-B receptor carrying green fluorescence; conditions: intraperitoneal injection, visual cortex imaging
in vivo = conditions: male, KM, mouse, iv, 1 mg/kg, T1/2
[10] = Pharmacokinetics in KM mice after intravenous administration; conditions: male, mouse, plasma, 1 mg/kg

## CSCC[C@H](NC(=O)[C@@H](N)Cc1c[nH]c2ccccc12)C(=O)N[C@@H](CC(=O)O)C(=O)N[C@@H](Cc1ccccc1)C(N)=O [CCK4, Trp-Met-Asp-Phe-NH2, reference compound]
Senile wild-type mice
  evasion latency in positioning navigation experiment vs control: shorter than that of the control group
  spatial exploration tracks in space exploration experiment: more spatial exploration tracks at the original position of the platform
[1]
  proportion of exploration duration in the target quadrant vs control: significantly higher than the control group
  spatial exploration tracks in space exploration experiment: more spatial exploration tracks at the original position of the platform
[1]; CCK4 four times a day 10 days, HT-267 once a day 8 days
  evasion latency in positioning navigation experiment vs control: shorter than that of the control group
memory-deficient mice [2]
  proportion of exploration duration in the target quadrant vs control: significantly higher than that in the control group
[3]
  concentration in blood samples (below detection limitation): < 50 ng/mL
[4]
  half-life: less than 5 minutes

## CCCC[C@H](NC(=O)[C@H](Cc1c[nH]c2ccccc12)NC(C)=O)C(=O)N[C@@H](CC(=O)O)C(=O)N[C@@H](Cc1cccc(Br)c1)C(N)=O [HT-177, Ac-Trp-Nle-Asp-Phe(3-Br)-NH2] (Ac-W[Nle]D[Phe(3-Br)]-NH2)
[5]; calcium signal
  agonistic/antagonistic activity on CCK-B receptors (in words): more active
[5]
  EC50: 0.056 nM
[6]
  EC50: 279 nM
memory-deficient mice [2]
  proportion of exploration duration in the target quadrant vs control: significantly higher than that in the control group
memory-deficient mice [7]
  recognition index of new objects vs control: significantly higher than that of the control group
[8]
  basal field potential after administration (long-term potentiation): enhanced, and the enhancement lasted for more than one hour
[9]
  blood-brain barrier crossing / green fluorescence signal of CCK-B receptor sensor: crossed the blood-brain barrier and was bound to the CCK-B receptor
In vivo
  half-life: 43.3 min
[10]
  AUC(0-inf): 641 ng·h/mL
  Cmax: 403 ng/mL
  Tmax: 15 min

## CCCC[C@H](NC(=O)[C@@H](Cc1c[nH]c2ccccc12)NC(C)=O)C(=O)N[C@@H](CC(=O)O)C(=O)N[C@@H](Cc1cccc(Br)c1)C(N)=O [HT-178, Ac-D-Trp-Nle-Asp-Phe(3-Br)-NH2] (Ac-[dW][Nle]D[Phe(3-Br)]-NH2)
[5]
  EC50: 2.81 nM
[6]
  EC50: 528 nM
memory-deficient mice [2]
  proportion of exploration duration in the target quadrant vs control: significantly higher than that in the control group
memory-deficient mice [7]
  recognition index of new objects vs control: significantly higher than that of the control group
[8]
  basal field potential after administration (long-term potentiation): enhanced, and the enhancement lasted for more than one hour
